In US11851440B2, “Modulators of eukaryotic initiation factor 2B, compositions and methods” (Denali Therapeutics Inc., priority 2017, dated 2023):
Where two headings read alike, the source gives them in different places.

Legend:
[1] = biological target: T1, P-gp (P-glycoprotein, MDR1) (Homo sapiens, UniProt P08183); assay: MDCKII-MDR1 permeability, bidirectional assay; type: in vitro ADME; details: dog, MDCK-MDR1, MDCKII-MDR1 cells, HBSS+12.5 mM HEPES pH 7.4
T1 construct: host or cells: MDCKII-MDR1 cells (pre-plated, Corning HTS Transwell-96)
Protocol: The blood brain barrier (BBB) separates circulating blood from the extracellular fluid of the central nervous system (CNS). […] A bidirectional assay (Apical to Basolateral (A→B) and Basolateral to Apical (B→A)), in the absence and in the presence of GF120918 (a P-gp inhibitor) was conducted using pre-plated MDCKII-MDR1 cells (Corning HTS Transwell-96) obtained from SOLVO Biotechnology. The assay was run at 3 μM for 90 min (minutes) in triplicate using a HBSS+12.5 mM HEPES pH 7.4 transport buffer. Following incubation of samples from donor and receiver, wells were removed and measured by LC-MS/MS. Samples were extracted by protein precipitation with acetonitrile containing an appropriate internal standard (IS) having a known mass and molecular weight. The precipitate was centrifuged for 10 min at 3000 rpm (revolutions per minute). The supernatants were then collected, diluted if necessary, and injected on to the LC-MS/MS system. Specific parent/daughter ion pairs for the test article and IS were used to selectively measure the test articles. Papp (apparent permeability expressed in nm/sec [nanometer/second]) values were calculated according to the following equation: […]
Where dQ/dt is the permeability rate, C0 is the initial concentration in the donor solution (expressed as IS ratio), A and B are the surface areas of the filter (the surface area of the cell monolayer).
Monolayer efflux ratios (ER) were derived using the following equation: […]

[2] = test system: ISR pathway (ATF4 translation); assay: ATF4 Nano Luciferase reporter integrated stress response (ISR) assay in H4 ATF4-NLuc cells; details: Homo sapiens
[3] = H4 ATF4-NLuc (clone 17) cells, compound 30 minutes, then 50 um sodium arsenite for 6 hours, luminescence readout
[4] = read-out: Activity (IC50), H4 ATF4-NLuc (clone 17) cells, compound 30 minutes, then 50 um sodium arsenite for 6 hours, luminescence readout

T1 sequence (P08183 whole entry): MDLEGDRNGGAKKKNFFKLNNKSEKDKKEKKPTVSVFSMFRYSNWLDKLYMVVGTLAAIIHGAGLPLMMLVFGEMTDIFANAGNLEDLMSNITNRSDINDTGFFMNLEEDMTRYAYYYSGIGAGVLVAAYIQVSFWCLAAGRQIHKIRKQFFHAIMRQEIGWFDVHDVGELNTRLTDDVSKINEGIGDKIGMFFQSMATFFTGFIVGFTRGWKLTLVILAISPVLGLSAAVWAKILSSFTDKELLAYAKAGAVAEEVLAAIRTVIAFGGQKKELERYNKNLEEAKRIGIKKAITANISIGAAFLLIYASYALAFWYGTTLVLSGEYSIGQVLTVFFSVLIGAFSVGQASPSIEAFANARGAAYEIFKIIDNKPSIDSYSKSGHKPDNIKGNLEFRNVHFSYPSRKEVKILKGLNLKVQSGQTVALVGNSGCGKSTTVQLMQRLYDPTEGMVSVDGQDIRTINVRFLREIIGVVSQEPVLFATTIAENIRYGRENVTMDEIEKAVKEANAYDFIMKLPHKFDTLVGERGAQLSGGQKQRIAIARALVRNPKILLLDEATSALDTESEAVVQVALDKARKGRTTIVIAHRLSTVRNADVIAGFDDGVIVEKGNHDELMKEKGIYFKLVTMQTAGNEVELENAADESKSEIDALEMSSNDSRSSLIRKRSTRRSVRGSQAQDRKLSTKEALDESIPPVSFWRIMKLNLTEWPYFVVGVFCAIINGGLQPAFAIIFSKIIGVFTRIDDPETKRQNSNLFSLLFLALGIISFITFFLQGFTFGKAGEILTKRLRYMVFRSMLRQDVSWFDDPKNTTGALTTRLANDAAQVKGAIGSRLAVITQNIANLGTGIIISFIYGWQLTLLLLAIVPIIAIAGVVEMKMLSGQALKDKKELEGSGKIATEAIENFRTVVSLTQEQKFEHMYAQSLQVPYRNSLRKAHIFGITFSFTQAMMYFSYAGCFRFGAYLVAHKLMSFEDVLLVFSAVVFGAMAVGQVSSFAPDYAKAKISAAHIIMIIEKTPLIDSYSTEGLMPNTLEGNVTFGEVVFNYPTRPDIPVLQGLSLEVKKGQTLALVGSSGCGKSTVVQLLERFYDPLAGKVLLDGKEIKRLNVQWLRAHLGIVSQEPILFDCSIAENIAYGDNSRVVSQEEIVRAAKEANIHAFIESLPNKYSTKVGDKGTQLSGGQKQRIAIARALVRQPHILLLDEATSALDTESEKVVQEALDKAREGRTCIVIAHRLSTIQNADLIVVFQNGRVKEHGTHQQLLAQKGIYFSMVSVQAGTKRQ

Compound | IC50 [2, 4] [µM] | further results
O=C(COc1ccc(Cl)c(F)c1)NC12CC(c3nnc([C@@H]4C[C@H]4COC(F)(F)F)o3)(C1)C2 (single isomer, unassigned) [Example 81, 2-(4-chloro-3-fluoro-phenoxy)-N-[3-[5-[2-trans-(trifluoromethoxymethyl)cyclopropyl]-1,3,4-oxadiazol-2-yl]-1-bicyclo[1.1.1]pentanyl]acetamide] | < 1 | efflux ratio at 90 min, 3 μM [1]: ≤ 2.5; IC50 [2, 3]: 0.0118 µM
O=C(COc1ccc(Cl)c(F)c1)NC12CC(c3nnc(CCCOC(F)(F)F)o3)(C1)C2 [Example 49, 2-(4-chloro-3-fluorophenoxy)-N-(3-(5-(3-(trifluoromethoxy)propyl)-1,3,4-oxadiazol-2-yl)bicyclo[1.1.1]pentan-1-yl)acetamide] | < 1 | efflux ratio at 90 min, 3 μM [1]: ≤ 2.5; IC50 [2, 3]: 0.0182 µM
O=C(CO[C@H]1C[C@@H](OC(F)(F)F)C1)NC12CC(n3cnc(-c4ccc(Cl)c(F)c4)c3)(C1)C2 [Example 70, N-[3-[4-(4-chloro-3-fluoro-phenyl)imidazol-1-yl]-1-bicyclo[1.1.1]pentanyl]-2-[3-cis-(trifluoromethoxy)cyclobutoxy]acetamide] | < 1 | efflux ratio at 90 min, 3 μM [1]: ≤ 2.5; IC50 [2, 3]: 0.0028 µM
O=C(COc1ccc(Cl)c(F)c1)NC12CC(NCCO[C@H]3C[C@@H](OC(F)(F)F)C3)(C1)C2 [Example 133, 2-(4-chloro-3-fluoro-phenoxy)-N-[1-[2-[cis-3-(trifluoromethoxy)cyclobutoxy]ethylamino]-3-bicyclo[1.1.1]pentanyl]acetamide] | < 1 | efflux ratio at 90 min, 3 μM [1]: ≤ 2.5; IC50 [2, 3]: 0.0181 µM
O=C(CO[C@H]1C[C@@H](OC(F)(F)F)C1)NC12CC(n3cnc(-c4ccc(Cl)cc4)c3)(C1)C2 [Example 139, N-(3-(4-(4-chlorophenyl)-1H-imidazol-1-yl)bicyclo[1.1.1]pentan-1-yl)-2-(3-cis-(trifluoromethoxy)cyclobutoxy)acetamide] | < 1 | efflux ratio at 90 min, 3 μM [1]: ≤ 2.5; IC50 [2, 3]: 0.0043 µM
O=C(CO[C@H]1C[C@@H](OC(F)(F)F)C1)NC12CC(n3cnc(-c4ccc(Cl)cc4F)c3)(C1)C2 [Example 146, N-(3-(4-(4-chloro-2-fluorophenyl)-1H-imidazol-1-yl)bicyclo[1.1.1]pentan-1-yl)-2-(3-cis-(trifluoromethoxy)cyclobutoxy)acetamide] | < 1 | efflux ratio at 90 min, 3 μM [1]: ≤ 2.5; IC50 [2, 3]: 0.0037 µM
O=C(CO[C@H]1C[C@@H](OC(F)(F)F)C1)NC12CC(c3nc4ccc(Cl)cc4o3)(C1)C2 [Example 233] | < 1 | –
O=C(CO[C@H]1C[C@@H](OC(F)(F)F)C1)NC12CC(c3nc4cc(Cl)ccc4o3)(C1)C2 [Example 234] | 1 to 10 | –
O=C(NC12CC(c3nnc(-c4ccc(Cl)c(F)c4)o3)(C1)C2)[C@H]1CC[C@H](COC(F)(F)F)CC1 [Example 235] | < 1 | –
O=C(CO[C@H]1C[C@@H](OC(F)(F)F)C1)NC12CC(c3cnn(-c4ccc(Cl)c(F)c4)c3)(C1)C2 [Example 236, N-(3-(1-(4-chloro-3-fluorophenyl)-1H-pyrazol-4-yl)bicyclo[1.1.1]pentan-1-yl)-2-(3-cis-(trifluoromethoxy)cyclobutoxy)acetamide] | < 1 | efflux ratio at 90 min, 3 μM [1]: ≤ 2.5; IC50 [2, 3]: 0.0215 µM
O=C(COc1ccc(Cl)c(F)c1)NC12CC(NC(=O)OC[C@H]3C[C@H](OC(F)(F)F)C3)(C1)C2 [Example 238] | < 1 | –
O=C(CO[C@H]1C[C@@H](OC(F)(F)F)C1)NC12CC(c3ncn(-c4ccc(Cl)c(F)c4)n3)(C1)C2 [Example 239] | < 1 | –
CCO[C@H]1C[C@@H](OCC(=O)NC23CC(n4cnc(-c5ccc(Cl)c(F)c5)c4)(C2)C3)C1 [Example 240] | < 1 | –
O=C(CO[C@H]1C[C@@H](OC(F)(F)F)C1)NC12CC(c3nnc(-c4ccc(Cl)cn4)s3)(C1)C2 [Example 241] | < 1 | –
O=C(COc1ccc(Cl)cc1)NC12CC(c3nnn([C@H]4C[C@@H](OC(F)(F)F)C4)n3)(C1)C2 [Example 242] | < 1 | –
O=C(CO[C@H]1C[C@@H](OC(F)(F)F)C1)NC12CC(c3nnn(-c4ccc(Cl)cc4)n3)(C1)C2 [Example 243] | < 1 | –
O=C(COc1ccc(Cl)c(F)c1)NC12CC(c3nnc([C@H]4C[C@@H](n5nccn5)C4)o3)(C1)C2 [Example 244] | < 1 | –
O=C(COc1ccc(Cl)c(F)c1)NC12CC(c3nnc([C@H]4C[C@@H](n5ccnn5)C4)o3)(C1)C2 [Example 245] | < 1 | –
O=C(CO[C@H]1C[C@@H](OC(F)(F)F)C1)NC12CC(NCCOc3ccc(Cl)c(F)c3)(C1)C2 [Example 246] | < 1 | –
O=C(CO[C@H]1C[C@@H](OC(F)(F)F)C1)NC12CC(c3cnc(-c4ccc(Cl)c(F)c4)o3)(C1)C2 [Example 247] | < 1 | –
O=C(CO[C@H]1C[C@@H](OC(F)(F)F)C1)NC12CC(c3cc(-c4ccc(Cl)c(F)c4)no3)(C1)C2 [Example 248, N-(3-(3-(4-chloro-3-fluorophenyl)isoxazol-5-yl)bicyclo[1.1.1]pentan-1-yl)-2-(3-cis-(trifluoromethoxy)cyclobutoxy)acetamide] | < 1 | efflux ratio at 90 min, 3 μM [1]: ≤ 2.5; IC50 [2, 3]: 0.0282 µM
O=C(NC12CC(n3cnc(-c4ccc(F)c(F)c4)c3)(C1)C2)[C@H]1C[C@H](OCCOC(F)(F)F)C1 [Example 249] | < 1 | –
O=C(CO[C@H]1C[C@@H](OC(F)(F)F)C1)NC12CC(c3cc(-c4ccc(Cl)cc4)no3)(C1)C2 [Example 251] | < 1 | –

Compound | IC50 [2, 4] [µM] | further results
O=C(CO[C@H]1C[C@@H](OC(F)(F)F)C1)NC12CC(c3cc(-c4ccc(Cl)cc4F)no3)(C1)C2 [Example 252] | < 1 | –
O=C(NC12CC(c3nnc([C@H]4C[C@@H](OC(F)(F)F)C4)o3)(C1)C2)C(O)Cc1ccc(Cl)cc1 (some centres unmarked) [Example 253] | < 1 | –
N#Cc1cc(C(F)(F)F)ccc1-c1cn(C23CC(NC(=O)CO[C@H]4C[C@@H](OC(F)(F)F)C4)(C2)C3)cn1 [Example 255] | < 1 | –
O=C(COc1ccc(Cl)c(CO)c1)NC12CC(c3nnc([C@H]4C[C@@H](OC(F)(F)F)C4)o3)(C1)C2 [Example 256] | < 1 | –
O=C(CC(O)c1ccc(Cl)cc1)NC12CC(c3nnc([C@H]4C[C@@H](OC(F)(F)F)C4)o3)(C1)C2 (some centres unmarked) [Example 257] | < 1 | –
O=C(CO[C@H]1C[C@@H](OC(F)(F)F)C1)NC12CC(c3cc(-c4ccc5c(c4)OC(F)(F)O5)no3)(C1)C2 [Example 258] | < 1 | –
CC(C)(C)[Si](C)(C)O[C@H]1C[C@@H](c2nnc(C34CC(NC(=O)COc5ccc(Cl)cc5)(C3)C4)o2)C1 [Example 260] | – | IC50 ([2]; read-out: Activity (IC50)): < 1 µM
O=C(COc1ccc(Cl)cc1)NC12CC(c3nnc([C@H]4C[C@@H](O)C4)o3)(C1)C2 [Example 261] | 1 to 10 | –
CC(COC(F)(F)F)OCC(=O)NC12CC(n3cnc(-c4ccc(Cl)c(F)c4)c3)(C1)C2 (centres unmarked) [Example 262] | < 1 | –
O=C(CO[C@H]1C[C@@H](OC(F)(F)F)C1)NC12CC(c3cnn(-c4ccc(Cl)cc4)c3)(C1)C2 [Example 263] | < 1 | –
O=C(CO[C@H]1C[C@@H](OC(F)(F)F)C1)NC12CC(N3CCN(c4ccc(Cl)cc4)C3=O)(C1)C2 [Example 264] | < 1 | –
O=C(COc1ccc(Cl)cc1)NC12CC(N3C[C@H](C4CC(OC(F)(F)F)C4)OS3(=O)=O)(C1)C2 (some centres unmarked) [Example 266] | < 1 | –
O=C(CO[C@H]1C[C@@H](OC(F)(F)F)C1)NC12CC(n3cnc(C4=NCC(C(F)(F)F)O4)c3)(C1)C2 (some centres unmarked) [Example 267] | < 1 | –
O=C(NC12CC(c3nnc([C@H]4C[C@@H](OC(F)(F)F)C4)o3)(C1)C2)N1CCc2cc(Cl)ccc2C1 [Example 268] | < 1 | –
O=C(CO[C@H]1C[C@@H](OC(F)(F)F)C1)NC12CC(n3cnc(-c4c(F)cc(Cl)cc4F)c3)(C1)C2 [Example 269] | < 1 | IC50 [2, 3]: 0.0075 µM
O=C(CO[C@H]1C[C@@H](OC(F)(F)F)C1)NC12CC(n3cnc(-c4cc(F)c(Cl)cc4F)c3)(C1)C2 [Example 271] | < 1 | –
O=C(CO[C@H]1C[C@@H](OC(F)(F)F)C1)NC12CC(n3cnc(-c4ccc(C(F)(F)F)cc4CO)c3)(C1)C2 [Example 272] | < 1 | –
COC(=O)c1cc(C(F)(F)F)ccc1-c1cn(C23CC(NC(=O)CO[C@H]4C[C@@H](OC(F)(F)F)C4)(C2)C3)cn1 [Example 273] | < 1 | –
CC(COCC(=O)NC12CC(n3cnc(-c4ccc(Cl)c(F)c4)c3)(C1)C2)OC(F)(F)F (centres unmarked) [Example 274] | < 1 | –
O=C(CO[C@H]1C[C@@H](OC(F)(F)F)C1)NC12CC(c3cnn(-c4ccccc4)c3)(C1)C2 [Example 275] | < 1 | –
O=C(CO[C@H]1C[C@@H](OC(F)(F)F)C1)NC12CC(c3nnc(OCCOC(F)(F)F)o3)(C1)C2 [Example 276] | < 1 | –
O=C(NC12CC(c3nnc([C@H]4C[C@@H](OC(F)(F)F)C4)o3)(C1)C2)c1cn(CCOC(F)(F)F)cn1 [Example 277] | < 1 | –
